Results reported in patent publication US20090062338A1, “[…] USE IN TREATING OR PREVENTING CARDIOVASCULAR DISEASE” (priority 2005, published 2009).

Experiments:
[1] = test system: Adiponectin, C1Q and collagen domain containing; assay: Gene expression in adipose tissue of mice fed Tempol, Affymetrix MOE430A 2.0 array; assay type: in vivo; details: 5 g/kg of diet from 12 through 15 months
Procedure: (§1) In a further gene expression study, Tempol was administered to experimental mice at a dose of 5 g/kg of diet from 12 months through 15 months. Mice receiving the same diet without the addition of Tempol were used as a negative control. At the age of 15 months, the adipose tissue of the experimental animals was obtained. The expression of a broad spectrum of genes in the adipose tissue was assessed using chip-based microarray technology. Specifically, in this case an Affymetrix MOE430A 2.0 array, containing 12,960 genes, was employed. Such chips are well known in the art and are widely used to assess gene expression.

Caspase 3 [2] = assay: as above; assay type: in vivo; details: 5 g/kg of diet from 12 through 15 months
Procedure: as §1

hepatocyte growth factor [3] = assay: Gene expression in cardiac tissue of mice fed Tempol, chip-based microarray; assay type: in vivo; details: 5 mg/g of food from 14 to 31 months of age
Procedure: To assess the effects of Tempol on gene expression, Tempol was administered to experimental mice at a dose of 5 mg/g of food from 14 months to 31 months after birth. Mice receiving the same food without the addition of Tempol were used as a negative control. At the age of 31 months, the experimental animals were sacrificed and the hearts were surgically removed. The expression of a broad spectrum of genes in the cardiac tissue was assessed using chip-based microarray technology. Such chips are well known in the art and are widely used to assess gene expression.

endothelium = details: angiotensin II infused rats, introduction of Tempol; cited from earlier work
hepatocyte growth factor [4] = assay: Protein level in patient after Tempol treatment; assay type: in vivo, human; details: 1500 mg per day for 180 days
Procedure: (§2) A 70-kilogram patient three days post myocardial infarction is administered a dose of 1500 mg of Tempol per day for 180 days. This may be administered in a single dose, or may be administered as a number of smaller doses over a 24-hour period: for example, three 500-mg doses at eight-hour intervals. Following treatment, the protein level of hepatocyte growth factor and adiponectin in the plasma is increased, and the protein level of caspase 3 is decreased.
as §2, with “at risk for” for “three days post”

adiponectin = assay: Protein level in patient after Tempol treatment; assay type: in vivo, human; details: 1500 mg per day for 180 days
Procedure: as §2
as §2, with “at risk for” for “three days post”

caspase 3 [5] = assay: Protein level in patient after Tempol treatment; assay type: in vivo, human; details: 1500 mg per day for 180 days
Procedure: as §2
as §2, with “at risk for” for “three days post”

[6] = Example 1: 70-kg patient three days post myocardial infarction
[7] = Example 2: 70-kg patient at risk for myocardial infarction

## CC1(C)CC(O)CC(C)(C)N1[O] [Tempol, 4-hydroxy-2,2,6,6-tetramethylpiperidine-1-oxyl]
[1]
  Adiponectin expression, fold change (increase) vs control mice: 1.22 fold
[1]; microarray signal
  Adiponectin expression, mean (Tempol-treated mice): 33876
Caspase 3 [2]; microarray signal
  Caspase 3 expression, mean (Tempol-treated mice): 414
Caspase 3 [2]; negative = decrease
  Caspase 3 expression, fold change vs control mice (signed): −1.47 fold
Caspase 3 [2]; stated as decreased
  Caspase 3 expression, fold decrease vs control mice: 1.47 fold
Hepatocyte growth factor [3]
  HGF expression, fold change (increase) vs control mice: 3.2 fold
Hepatocyte growth factor [3]; microarray signal
  HGF (ORF W12681) expression, TEMPOL-treated mouse tp51: 152
  HGF (ORF W12681) expression, TEMPOL-treated mouse tp52: 151
  HGF (ORF W12681) expression, TEMPOL-treated mouse tp53: 207
endothelium
  Deleterious effects of angiotensin II on the endothelium: ameliorated
Hepatocyte growth factor [4]; [6]
  Protein level of hepatocyte growth factor in the plasma: increased
Hepatocyte growth factor [4]; [7]
  Protein level of hepatocyte growth factor in the plasma: increased
adiponectin; [6]
  Protein level of adiponectin in the plasma: increased
adiponectin; [7]
  Protein level of adiponectin in the plasma: increased
Caspase 3 [5]; [6]
  Protein level of caspase 3: decreased
Caspase 3 [5]; [7]
  Protein level of caspase 3: decreased
